Literature values in EP0275444A1, “Pharmaceutical form for urapidil” (BYK GULDEN LOMBERG CHEMISCHE FABRIK GMBH, priority 1986, dated 1988).
Where two headings read alike, the source gives them in different places.

Experiments:
[1] = in vivo

SMILES	Löslichkeit (above pH 4, in water)	Eliminationshalbwertzeit [1]	Löslichkeit (at the higher pH values of the intestine)
OCCN(CCO)c1nc(N2CCCCC2)c2nc(N(CCO)CCO)nc(N3CCCCC3)c2n1 [Dipyridamol]	praktisch wasserunlöslich	–	–
COc1ccccc1N1CCN(CCCNc2cc(=O)n(C)c(=O)n2C)CC1 [Urapidil, 6-({3-[4-(o-Methoxyphenyl)-1-piperazinyl]propyl}amino)-1,3-dimethyluracil]	–	2,7 Stunden	ausreichende Löslichkeit
